Among the test systems are CCRF-CEM leukemia; SR leukemia; HCT-116 colon; OVCAR-4 ovarian; IGROV1 ovarian; OVCAR-5 ovarian; SNB-19 CNS; HOP-62 NSCLC; RXF 393 renal; TK-10 renal; 786-0 renal; MDA-MB-435; SK-MEL-5 melanoma; MCF7 breast; NCI-H460 lung; SN12C renal.
What all share (assay): growth of human tumour cells (NCI), 48 h

SMILES strings stand for the structures.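 48-hour exposure; five concentrations; linearly interpolated endpoints. TGI: concentration producing complete growth inhibition.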

Take `c1ccc(CSc2nc(N3CCOCC3)c3cn[nH]c3n2)cc1`: the TGI in the test on CCRF-CEM leukemia was 36 µM; with SR leukemia it was 63.6 µM; in the test on HCT-116 colon, more than 100 µM; with OVCAR-4 ovarian, more than 100 µM; in the test with IGROV1 ovarian it was 31.7 µM; in the test on OVCAR-5 ovarian it was more than 100 µM. Moreover, the TGI is 87.4 µM in the test on SNB-19 CNS; more than 100 µM in the test with HOP-62 NSCLC; 32.9 µM in the test with RXF 393 renal; 51.6 µM in the test with TK-10 renal; more than 100 µM in the test with 786-0 renal; 40 µM in the test with MDA-MB-435. Also, the TGI is 30.9 µM in the test on SK-MEL-5 melanoma, more than 100 µM with MCF7 breast, 59 µM with NCI-H460 lung and 37.7 µM with SN12C renal.
Take `Cc1nnc2n1-c1ccccc1C(=S)N1CSCC21` (configuration not stated): the TGI in the test on CCRF-CEM leukemia, with SR leukemia, in the test with HCT-116 colon, with OVCAR-4 ovarian, in the test on IGROV1 ovarian and in the test on OVCAR-5 ovarian was more than 100 µM throughout. Further, the TGI with SNB-19 CNS, with HOP-62 NSCLC, in the test on RXF 393 renal, in the test on TK-10 renal, in the test with 786-0 renal and with MDA-MB-435 was more than 100 µM in each case. Also, the TGI in the test with SK-MEL-5 melanoma, in the test with MCF7 breast, in the test with NCI-H460 lung and with SN12C renal was more than 100 µM throughout.
Turning to `O=[N+]([O-])c1ccc2nc(/C=C(\O)c3ccc(F)cc3)c(/C=C(\O)c3ccc(F)cc3)nc2c1`, the TGI in the test with CCRF-CEM leukemia is 26.4 µM; in the test on SR leukemia, 40.9 µM; in the test on HCT-116 colon, more than 100 µM; in the test on OVCAR-4 ovarian it was more than 100 µM; in the test with IGROV1 ovarian it was more than 100 µM; with OVCAR-5 ovarian, more than 100 µM. Moreover, the TGI in the test with SNB-19 CNS was more than 100 µM; with HOP-62 NSCLC, 31.7 µM; in the test with RXF 393 renal it was 40.7 µM; in the test on TK-10 renal, 34.2 µM; in the test on 786-0 renal it was 39.7 µM; with MDA-MB-435, more than 100 µM. Moreover, the TGI in the test with SK-MEL-5 melanoma, in the test on MCF7 breast, in the test on NCI-H460 lung and in the test on SN12C renal was more than 100 µM in each case.
Consider `C=CC[C@H]1[C@H](O[Si](C)(C)C(C)(C)C)C=CC(=O)[C@@H]1CC(=O)N(Cc1ccccc1)Cc1ccccc1`, for which the TGI in the test with CCRF-CEM leukemia was more than 100 µM; in the test with SR leukemia, more than 100 µM; in the test on HCT-116 colon, 54.5 µM; in the test on OVCAR-4 ovarian, more than 100 µM; with IGROV1 ovarian it was more than 100 µM; in the test on OVCAR-5 ovarian it was more than 100 µM. Besides, the TGI with SNB-19 CNS is more than 100 µM; in the test with HOP-62 NSCLC, more than 100 µM; in the test with RXF 393 renal, 27.4 µM; in the test with TK-10 renal, 85.6 µM; in the test with 786-0 renal, 84.9 µM; with MDA-MB-435, more than 100 µM. The TGI in the test on SK-MEL-5 melanoma was 20.7 µM; in the test on MCF7 breast, more than 100 µM; with NCI-H460 lung, more than 100 µM; in the test with SN12C renal it was 90.4 µM.
As to `COC(=O)/C=c1/c2ccccc2n2nc3ccccc3c12`, the TGI was more than 100 µM in the test on CCRF-CEM leukemia; 17.1 µM with SR leukemia; more than 100 µM in the test on HCT-116 colon; more than 100 µM with OVCAR-4 ovarian; more than 100 µM with IGROV1 ovarian; more than 100 µM in the test on OVCAR-5 ovarian. Besides, the TGI in the test on SNB-19 CNS, with HOP-62 NSCLC, with RXF 393 renal, in the test with TK-10 renal, in the test with 786-0 renal and in the test on MDA-MB-435 was more than 100 µM in each case. The TGI in the test with SK-MEL-5 melanoma, in the test with MCF7 breast, in the test on NCI-H460 lung and with SN12C renal was more than 100 µM each time.
Regarding `CC(C)C1OC(=O)/C=C/C=C/C=C/C=C/C=C/CC(O)CC(O)CC(O)CC(O)CC(O)CC(O)CC(O)CC(O)/C=C/C1C` (configuration not stated), the TGI with CCRF-CEM leukemia, with SR leukemia, in the test with HCT-116 colon, in the test on OVCAR-4 ovarian, with IGROV1 ovarian and with OVCAR-5 ovarian was more than 100 µM throughout. The TGI with SNB-19 CNS, in the test with HOP-62 NSCLC, in the test on RXF 393 renal, in the test on TK-10 renal, in the test on 786-0 renal and in the test with MDA-MB-435 was more than 100 µM in each case. For the same compound, the TGI in the test on SK-MEL-5 melanoma, in the test on MCF7 breast, with NCI-H460 lung and in the test on SN12C renal was more than 100 µM each time.
In the case of `Cc1ccc(N=C2C(=O)C3=C(OC(C)(C)CC3)c3ccccc32)cc1`, the TGI in the test on CCRF-CEM leukemia turned out to be 10.1 µM; in the test with SR leukemia it was 1.6 µM; in the test on HCT-116 colon, 1.05 µM; in the test with OVCAR-4 ovarian, 2.18 µM; in the test on IGROV1 ovarian, 2.03 µM; in the test with OVCAR-5 ovarian, 3.5 µM. Also, the TGI was determined as 2.26 µM in the test on SNB-19 CNS; 1.76 µM in the test with HOP-62 NSCLC; 3.12 µM in the test with RXF 393 renal; 4.86 µM in the test on TK-10 renal; 3.18 µM in the test with 786-0 renal; 0.346 µM in the test with MDA-MB-435. In addition, the TGI came to 2.28 µM in the test on SK-MEL-5 melanoma, 1.23 µM in the test with MCF7 breast, 3.96 µM in the test on NCI-H460 lung and 1.73 µM in the test with SN12C renal.
Consider `COc1cccc(NC(=O)CC(=O)N2N=C(C)C(N=Nc3ccc(S(=O)(=O)c4ccc(N=NC5C(=O)N(C(=O)CC(=O)Nc6cccc(OC)c6)N=C5C)cc4)cc3)C2=O)c1` (configuration not stated), for which the TGI in the test with CCRF-CEM leukemia, in the test on SR leukemia, in the test with HCT-116 colon, with OVCAR-4 ovarian, in the test with IGROV1 ovarian and in the test on OVCAR-5 ovarian was more than 100 µM each time. For the same compound, the TGI in the test with SNB-19 CNS, with HOP-62 NSCLC, in the test with RXF 393 renal, with TK-10 renal, with 786-0 renal and with MDA-MB-435 was more than 100 µM in each case. The TGI in the test with SK-MEL-5 melanoma, with MCF7 breast, in the test with NCI-H460 lung and in the test with SN12C renal was more than 100 µM in each case.
`O[C@@H]1C[C@@H]2N[C@@](O)(C[C@@H]2O)[C@H]1O`: the TGI in the test with CCRF-CEM leukemia, in the test with SR leukemia, in the test with HCT-116 colon, in the test on OVCAR-4 ovarian, in the test on IGROV1 ovarian and with OVCAR-5 ovarian was more than 100 µM in each case. In addition, the TGI in the test with SNB-19 CNS, with HOP-62 NSCLC, with RXF 393 renal, with TK-10 renal, in the test on 786-0 renal and in the test on MDA-MB-435 was more than 100 µM in each case. The TGI in the test on SK-MEL-5 melanoma, with MCF7 breast, with NCI-H460 lung and in the test with SN12C renal was more than 100 µM each time.
Regarding `CNC1=CC(=O)C2=C(C1=O)[C@H]1CC[C@]3(C)C(=O)CC[C@H]3[C@@H]1CC2`, the TGI is 30.4 µM in the test with CCRF-CEM leukemia; more than 60.8 µM with SR leukemia; 35.7 µM in the test on HCT-116 colon; 37.4 µM in the test on OVCAR-4 ovarian; 16.1 µM with IGROV1 ovarian; 51 µM in the test on OVCAR-5 ovarian. For the same compound, the TGI is 40.8 µM in the test on SNB-19 CNS; 29.8 µM in the test with HOP-62 NSCLC; 41.1 µM in the test with RXF 393 renal; more than 100 µM in the test with TK-10 renal; 38.3 µM in the test with 786-0 renal; 13.1 µM in the test with MDA-MB-435. Moreover, the TGI with SK-MEL-5 melanoma is 27.6 µM; in the test with MCF7 breast, 47.5 µM; in the test with NCI-H460 lung it was 39.5 µM; in the test with SN12C renal, more than 52.7 µM.
For the compound `COc1ccc(N=C(Nc2ccc(OC)cc2)C(=Nc2ccc(OC)cc2)Nc2ccc(OC)cc2)cc1`, the TGI in the test with CCRF-CEM leukemia, with SR leukemia, in the test on HCT-116 colon, in the test on OVCAR-4 ovarian, in the test on IGROV1 ovarian and in the test with OVCAR-5 ovarian was more than 100 µM in each case. Besides, the TGI with SNB-19 CNS, with HOP-62 NSCLC, in the test with RXF 393 renal, in the test with TK-10 renal, in the test with 786-0 renal and with MDA-MB-435 was more than 100 µM throughout. For the same compound, the TGI with SK-MEL-5 melanoma, with MCF7 breast, in the test with NCI-H460 lung and in the test with SN12C renal was more than 100 µM throughout.
`OC1COC(n2c3ccc(Br)cc3c3ccc4c5ccccc5[nH]c4c32)C(O)C1O` (configuration not stated): the TGI in the test on CCRF-CEM leukemia was 19.3 µM; in the test with SR leukemia, 13.3 µM; with HCT-116 colon it was 12 µM; in the test on OVCAR-4 ovarian, more than 46.2 µM; in the test on IGROV1 ovarian, 8.21 µM; in the test with OVCAR-5 ovarian it was 12.4 µM. The TGI came to 28.2 µM in the test with SNB-19 CNS; 14.7 µM with HOP-62 NSCLC; 7.37 µM with RXF 393 renal; 13.9 µM with TK-10 renal; 17.8 µM in the test with 786-0 renal; 16.1 µM in the test on MDA-MB-435. Besides, the TGI amounted to 5.2 µM with SK-MEL-5 melanoma, 14.2 µM in the test with MCF7 breast, 18.6 µM in the test with NCI-H460 lung and 16 µM in the test with SN12C renal.
On to `CSC1=C(c2ccc(Cl)cc2)SC(N2CCCCC2)N1c1ccc([N+](=O)[O-])cc1` (configuration not stated), for which the TGI in the test with CCRF-CEM leukemia was more than 100 µM; with SR leukemia, more than 100 µM; in the test on HCT-116 colon, 62.8 µM; with OVCAR-4 ovarian, more than 100 µM; with IGROV1 ovarian it was more than 100 µM; with OVCAR-5 ovarian, 65.9 µM. Further, the TGI in the test with SNB-19 CNS is more than 100 µM; in the test with HOP-62 NSCLC, 41.8 µM; in the test with RXF 393 renal, more than 100 µM; in the test on TK-10 renal, more than 100 µM; in the test with 786-0 renal, more than 100 µM; in the test on MDA-MB-435, more than 100 µM. Further, the figures for the TGI in the test with SK-MEL-5 melanoma, in the test with MCF7 breast and in the test on NCI-H460 lung were 29.9 µM, more than 100 µM and 66.4 µM, respectively.

The values above are taken from PubChem BioAssay (NCI).
